{
  "source": "paper PMC5675004",
  "about": "(Cancer cell, 2015)",
  "key": {"[1]": {"test_system": "PPT CGNPs infected with SMO-WT and Cre", "test": "PPT CGNP proliferation, methyl-[3H]-thymidine incorporation", "assay_type": "cell-based, mouse", "settings": "for proliferation in the presence of SMO inhibitor: 500 nM of compound"}, "[2]": {"test_system": "PPT CGNPs expressing vismodegib-resistant SMO mutants", "test": "PPT CGNP proliferation, methyl-[3H]-thymidine incorporation", "assay_type": "cell-based, mouse", "settings": "for proliferation in the presence of SMO inhibitor: 500 nM of compound, SMO-mutant expressing cells"}, "advanced BCC patients": {"test_system": "advanced BCC patients", "settings": "ref Chang and Oro, 2012; cited from earlier work"}, "[3]": {"test_system": "SMO-A459V expressing CGNPs", "test": "PPT CGNP proliferation, methyl-[3H]-thymidine incorporation", "assay_type": "cell-based, mouse", "settings": "vismodegib dose response after removal of SHH ligand"}, "activating SMO mutants": {"test_system": "activating SMO mutants", "test": "[3H]-vismodegib binding to transfected HEK-293 cells", "settings": "all activating mutants tested, cell surface expression comparable to SMO-WT"}, "SMO-S387N": {"molecular_target": "SMO-S387N (Homo sapiens, UniProt Q99835, S387N)", "sequence (Q99835 28-787 S387N)": "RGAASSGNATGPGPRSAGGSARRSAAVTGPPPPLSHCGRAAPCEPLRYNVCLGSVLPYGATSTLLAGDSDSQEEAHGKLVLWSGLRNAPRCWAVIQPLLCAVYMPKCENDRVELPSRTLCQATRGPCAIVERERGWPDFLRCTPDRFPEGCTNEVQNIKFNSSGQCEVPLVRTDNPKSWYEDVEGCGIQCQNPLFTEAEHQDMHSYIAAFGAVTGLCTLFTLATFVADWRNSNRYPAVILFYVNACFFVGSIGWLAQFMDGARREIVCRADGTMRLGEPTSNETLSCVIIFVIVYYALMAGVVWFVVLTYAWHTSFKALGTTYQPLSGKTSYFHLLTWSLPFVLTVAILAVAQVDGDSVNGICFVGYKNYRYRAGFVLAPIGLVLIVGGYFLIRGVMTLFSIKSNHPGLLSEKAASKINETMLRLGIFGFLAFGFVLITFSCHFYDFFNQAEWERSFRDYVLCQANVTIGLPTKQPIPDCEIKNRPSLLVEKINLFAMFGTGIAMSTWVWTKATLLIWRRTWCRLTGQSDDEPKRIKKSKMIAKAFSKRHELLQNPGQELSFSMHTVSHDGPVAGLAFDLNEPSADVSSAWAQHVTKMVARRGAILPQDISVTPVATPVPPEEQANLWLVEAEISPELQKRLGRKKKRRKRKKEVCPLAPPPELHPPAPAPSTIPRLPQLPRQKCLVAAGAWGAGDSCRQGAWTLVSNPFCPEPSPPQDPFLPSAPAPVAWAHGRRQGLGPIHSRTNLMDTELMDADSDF", "test": "Gli-luciferase based Hh reporter assay", "assay_type": "cell-based", "settings": "1 μM vismodegib, C3H10T½ cells"}, "SMO-N219D": {"molecular_target": "SMO-N219D (Homo sapiens, UniProt Q99835, N219D)", "sequence (Q99835 28-787 N219D)": "as the sequence (Q99835 28-787 S387N) above, with N192D, N360S counted along it", "test": "Gli-luciferase based Hh reporter assay", "assay_type": "cell-based", "settings": "1 μM vismodegib, C3H10T½ cells"}, "[4]": {"test_system": "SMO-W535L expressing CGNPs", "test": "PPT CGNP proliferation, methyl-[3H]-thymidine incorporation", "assay_type": "cell-based, mouse", "settings": "vismodegib dose response after removal of SHH ligand"}, "SMO-D384N": {"molecular_target": "SMO-D384N (Homo sapiens, UniProt Q99835, D384N)", "sequence (Q99835 28-787 D384N)": "as the sequence (Q99835 28-787 S387N) above, with D357N, N360S counted along it", "test": "Gli-luciferase based Hh reporter assay", "assay_type": "cell-based", "settings": "1 μM vismodegib, C3H10T½ cells"}, "[5]": {"test_system": "PPT CGNPs infected with SMO-C469Y", "test": "PPT CGNP proliferation, methyl-[3H]-thymidine incorporation", "assay_type": "cell-based, mouse", "settings": "5 μM vismodegib"}, "SMO-D473H": {"test_system": "SMO-D473H", "settings": "mutation from relapsed metastatic MB; ref Yauch et al., 2009; cited from earlier work"}, "SMO-I408V": {"molecular_target": "SMO-I408V (Homo sapiens, UniProt Q99835, I408V)", "sequence (Q99835 28-787 I408V)": "as the sequence (Q99835 28-787 S387N) above, with N360S, I381V counted along it", "test": "[3H]-vismodegib binding to transfected HEK-293 cells", "settings": "compared with SMO-WT at similar cell surface levels"}, "[6]": {"test_system": "SMO-T241M expressing CGNPs", "test": "PPT CGNP proliferation, methyl-[3H]-thymidine incorporation", "assay_type": "cell-based, mouse", "settings": "vismodegib dose response after removal of SHH ligand"}, "[7]": {"test_system": "PPT CGNPs infected with SMO DBP mutants", "test": "PPT CGNP proliferation, methyl-[3H]-thymidine incorporation", "assay_type": "cell-based, mouse", "settings": "high levels of vismodegib (>1 μM)"}},
  "data": [
    {"smiles": "CN(C(=O)c1ccc(F)cc1C(F)(F)F)C1CCN(c2nnc(-c3ccnn3C)c3ccccc23)CC1", "note": "[LY2940680]", "values": [
      {"measurement": "proliferation in the presence of SMO inhibitor", "setting": "[1]", "result": "similarly inhibited the proliferation"},
      {"measurement": "proliferation in the presence of SMO inhibitor", "setting": "[2]", "result": "continued to proliferate, albeit to differing extents"}
    ]},
    {"smiles": "CS(=O)(=O)c1ccc(C(=O)Nc2ccc(Cl)c(-c3ccccn3)c2)c(Cl)c1", "note": "[vismodegib]", "values": [
      {"measurement": "estimated incidence of secondary, or acquired, resistance in BCC", "setting": "advanced BCC patients", "result": "~ 20 % per year"},
      {"measurement": "proliferation in the presence of vismodegib", "setting": "[3]", "result": "continued to proliferate at high concentrations of vismodegib"},
      {"measurement": "vismodegib binding", "setting": "activating SMO mutants", "result": "impaired vismodegib binding"},
      {"measurement": "sensitivity to vismodegib compared to SMO-WT", "setting": "SMO-S387N", "result": "reduced sensitivity"},
      {"measurement": "sensitivity to vismodegib compared to SMO-WT", "setting": "SMO-N219D", "result": "reduced sensitivity"},
      {"measurement": "IC50", "setting": "[1]; Mus musculus, read-out: IC50, proliferation", "result": "~0.022", "unit": "µM"},
      {"measurement": "concentration at which proliferation was maximally inhibited", "setting": "[1]; after removal of SHH ligand", "result": 100, "unit": "nM"},
      {"measurement": "proliferation in the presence of vismodegib", "setting": "[4]", "result": "continued to proliferate at high concentrations of vismodegib"},
      {"measurement": "sensitivity to vismodegib compared to SMO-WT", "setting": "SMO-D384N", "result": "reduced sensitivity"},
      {"measurement": "proliferation in the presence of vismodegib", "setting": "[5]", "result": "continued to proliferate at near untreated levels"},
      {"measurement": "drug binding in vitro", "setting": "SMO-D473H", "result": "abrogate drug binding"},
      {"measurement": "[3H]-vismodegib binding", "setting": "SMO-I408V", "result": "impaired vismodegib binding"},
      {"measurement": "proliferation in the presence of vismodegib", "setting": "[6]", "result": "continued to proliferate at high concentrations of vismodegib"},
      {"measurement": "proliferation in the presence of vismodegib", "setting": "[7]", "result": "continuing to proliferate at high levels of vismodegib"}
    ]},
    {"smiles": "Cc1sc2c(c1C)C(c1ccc(Cl)cc1)=N[C@@H](CC(=O)OC(C)(C)C)c1nnc(C)n1-2", "note": "[JQ1]", "values": [
      {"measurement": "proliferation in the presence of bromodomain inhibitor", "setting": "[2]; 1 μM JQ1", "result": "reduced proliferation"}
    ]},
    {"smiles": "Cc1c(C(=O)Nc2ccc(N3C[C@@H](C)O[C@@H](C)C3)nc2)cccc1-c1ccc(OC(F)(F)F)cc1", "note": "[LDE225, sonidegib]", "values": [
      {"measurement": "proliferation in the presence of SMO inhibitor", "setting": "[1]", "result": "similarly inhibited the proliferation"},
      {"measurement": "proliferation in the presence of SMO inhibitor", "setting": "[2]", "result": "continued to proliferate, albeit to differing extents"}
    ]}
  ]
}
